Source: patent publication US8653054B2, “2-(N-substituted piperazinyl) steroid derivatives” (Universite Laval, priority 2008, dated 2014)
Read-outs that look alike come from different tables or passages of the source.

What was measured:
[1] = tested on: human MCF-7 breast cancer xenografts; assay: Growth of human MCF-7 breast cancer xenografts in nude mice; format: in vivo; conditions: OVX nude mice, 60 mg/kg s.c. 3 times a week, E2-stimulated; FIG. 1
Procedure: MCF-7 breast cancer cells were obtained from the ATCC (Rockville, Md.) and were propagated in Dubelcco's Modified Eagle's Medium nutrient mixture F-12 ham (DME-F12) medium supplemented with 5% FBS, glutamine (2 mM), penicillin (100 IU/mL), streptomycin (100 μg/mL) and estradiol (1 nM). These cells were used to induce tumors in homozygous female nu/nu Brathymic mice (28-42 days old) that were obtained from Charles River (Saint-Constant, Canada). Bilateral ovariectomy was performed under isoflurane-induced anesthesia. At the time of ovariectomy, an implant of estradiol (E2) was inserted s.c. to stimulate initial tumor growth. E2 implants were prepared in 1 cm long Silastic tubing (inside diameter 0.062 inch, outside diameter 0.095 inch) containing 5 mm of 1:8 (w/w) mixture of E2 and cholesterol. One week after ovariectomy, 4.1×10^6 MCF-7 cells were inoculated s.c. in 0.1 mL of medium growth+30% Matrigel on both flanks of each ovariectomized (OVX) mouse through a 2.5 cm long 22-gauge needle. After approximately 5 weeks, the mice were randomly assigned to 2 groups according to tumor size. […] The size of tumors was measured by two perpendicular diameters and tumor area (mm^2) was calculated using the formula L/2×W/2×π. The area measured on the first day of treatment was taken as 100% (FIG. 1). […]

[2] = tested on: MCF-7 breast cancer cells; assay: Cell proliferation assay (MTS) on MCF-7 breast cancer cells; format: cell-based, human; conditions: Table 3, 3 days incubation
Procedure: MCF-7 breast cancer cells were maintained in Dulbecco's Modified Eagle's Medium (DMEM) containing a nutriment mixture F-12 ham (DME-F12) (Sigma, Saint Louis, USA) supplemented with 5% (v/v) fetal bovine serum (FBS), L-glutamine ([…]), penicillin (100 IU/ml), streptomycin sulphate (50 μg/ml) and estradiol (1 nM). For the assay, DME-F12 was supplemented with 5% (v/v) charcoal-strippes FBS, insulin (50 ng/ml) and the same concentrations of antibiotics as above.

[3] = tested on: LNCaP prostate cancer cells; assay: Cell proliferation assay (MTS) on LNCaP prostate cancer cells; format: cell-based; conditions: Table 3, 3 days incubation
Procedure: (§1) The cell proliferation assay was performed using 3-(4,5-dimethylthiazol-2-yl)-5-(3-carboxymethoxyphenyl)2-(4-sulfophenyl)-2H-tetrazolium (MTS) (Cell Titer 96 Aqueous, Promega, USA). MTS is converted into water-soluble colored formazan by dehydrogenase enzymes present in metabolically active cells, which allows the measurement of the number of viable cells.
(§2) The cells were incubated at 37° C. and 5% CO2. The steroid derivatives of the present disclosure were dissolved in ethanol to prepare the 1×10^−2 M stock solutions. The stock solutions and doxorubicin (DOX) (Novapharm, Toronto, Canada) were diluted at multiple concentrations with culture media, added to each well, as indicated, and incubated for 3 days. Following each treatment, 20 μl MTS was added to each well and the mix was incubated for 4 h.

K-562 leukemia cells = assay: Cell proliferation assay (MTS) on K-562 leukemia cells; format: cell-based; conditions: Table 3, 3 days incubation
[4] = tested on: Shionogi mammary carcinoma cells (AR+); assay: Cell proliferation assay (MTS) on Shionogi mammary carcinoma cells; format: cell-based; conditions: Table 3, 3 days incubation
Procedure: Shionogi mammary carcinoma cells bearing androgen-sensitive (AR+) were routinely grown in Eagle's Minimal Essential Medium (MEM) (Sigma, Saint Louis, USA) supplemented with 5% (v/v) fetal bovine serum (FBS), penicillin (100 IU/ml), streptomycin sulphate (50 μg/ml), 1% (v/v) non-essential amino acids and dihydrotestosterone DHT (10^−8 M). For the assay, MEM devoid of the pH indicator phenol red was supplemented with 2% (v/v) charcoal-strippes FBS and the same concentrations of antibiotics and non-essential amino acids as above.

[5] = tested on: MDA-MB-231 (ER−) breast cancer cells; assay: Cell proliferation assay (MTS) on MDA-MB-231 (ER−) breast cancer cells; format: cell-based; conditions: Table 3, 3 days incubation
Procedure: (§3) All of the following cell lines were maintained under a CO2 humidified atmosphere at 37° C. The culture media were changed every 3-4 days and the cells were split once a week.
(§4) For the assay, the culture medium was the same.
as §1, §2

[6] = Plasmatic concentration (AUC) of aminosteroids after a single subcutaneous injection in rat; conditions: 2.3 mg/kg
Procedure: Animals: Six to seven week-old male Sprague-Dawley rats (Crl:CD®(SD)Br VAF/Plus™) weighing approximately 220 g were obtained from Charles-River, Inc (St-Constant, Qc., Canada). The animals were acclimatized to environmental conditions (temperature: 22±3° C.; humidity: 50±20%; 12-h light/12-h dark cycles, lights on at 07:15 h) for at least 5 days before starting the experiment. The animals were housed three per cage and were allowed free access to water and a certified commercial rodent food (Rodent Diet #T.2018.15, Harlan Teklad, Madison, Wis., U.S.A.) and were randomized according to their body weight.
Assay: A pharmacokinetic study was carried out following one subcutaneous (s.c.) injection of the aminosteroids at one concentration (2.3 mg/kg of body weight in 0.5 mL of vehicle fluid). The compound was first dissolved in Ethanol (EtOH) followed by the addition of propylene glycol such that a final concentration of EtOH of 8% was obtained. During this experiment, the rats were housed individually and were fasted for 8h before injection of the aminosteroid. Blood samples for determination of aminosteroid plasma concentration were collected at the jugular vein (0.4 mL by animal) at target intervals of 3, 7, 12 and 24 h (or 3 and 12 h) post-dose from six rats per time point (Tables 5, 6 and 7). After the collect at 7 h, a replacement fluid (0.9% sodium chloride injection USP) was injected in the rat. Blood samples were collected in Microvette potassium-EDTA (ethylenediamine tetra-acetic acid)-coated tubes (Sarstedt, Aktiengesellchaft & Co, Germany) and centrifuged at 3200 rpm for 10 minutes at 4° C. The plasma was collected and stored at −80° C. until analyzed by liquid chromatography/mass spectrometry/mass spectrometry (LC/MS/MS) analysis.
Aminosteroid measurement: The concentration of the aminosteroid was determined by LC/MS/MS analysis using a procedure developed at the CHUQ (CHUL)—Research Center (Québec, Qc, Canada). Briefly, for extraction from serum, 100 νL, of the serum sample was transferred to individual tubes and 600 μL of ammonium acetate (1 mM) was added. A methanolic solution (50 μL) containing a steroidal internal standard was then added to each tube. Samples were transferred on Strata-X SPE columns (Phenomenex, Torrance, Calif., USA), which have been conditioned with 2 mL of MeOH and 2 mL of water. Each column was washed with 2 mL of MeOH:water (10:90, v/v). The aminosteroid was then eluted with 5 mL of MeOH containing 5 mM ammonium acetate. The MeOH was evaporated at 45° C. under inert atmosphere and the dried residue dissolved in 100 μL of MeOH:water (85:15, v/v). […] The inhibitor was detected using an API 3000 mass spectrometer, equipped with TurbolonSpray (Applied Biosystems, Canada). ESI in positive ion mode was used.

[7] = tested on: normal lymphocytes from peripheral blood; assay: Cell proliferation assay (MTS) on normal lymphocytes
Procedure: as §3, §4, §1, §2

[8] = tested on: PC-3 (AR−) prostate cancer cells; assay: Cell proliferation assay (MTS) on PC-3 (AR−) prostate cancer cells; format: cell-based; conditions: Table 3, 3 days incubation
Procedure: as §3, §4, §1, §2

[9] = tested on: HL-60 acute promyelocytic leukemia cells; assay: Cell proliferation assay (MTS) on HL-60 leukemia cells; format: cell-based, human;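 note: cells exposed to serially diluted compound for 3 days at 37 °C, then viable cell number read via MTS conversion to coloured formazan by metabolically active cells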
Procedure: as §3, §4, §1, §2

[10] = tested on: WI-38 diploid fibroblasts; assay: Cell proliferation assay (MTS) on WI-38 normal fibroblasts; format: cell-based, human; conditions: Table 3, normal cells, 3 days incubation
Procedure: WI-38 diploid fibroblasts derived from embryonic human lung were cultured in MEM (devoid of the pH indicator phenol red) supplemented with 10% (v/v) FBS, L-glutamine (2 nM), penicillin (100 IU/ml), streptomycin sulphate (50 μg/ml), sodium pyruvate (1 mM) and non-essential amino acids (0.1 mM).
as §1, §2

[11] = tested on: OVCAR-3 ovarian cancer cells; assay: Cell proliferation assay (MTS) on OVCAR-3 ovarian cancer cells; format: cell-based; conditions: Table 3; 3 days incubation, MTS
From the text: For the assay, the culture medium was the same, but without estradiol.

In the case of `C[C@]12C[C@H](N3CCN(C(=O)[C@@H]4CCCN4C(=O)c4cccc5ccccc45)CC3)[C@@H](O)C[C@@H]1CC[C@@H]1[C@@H]2CC[C@]2(C)[C@@H](O)CC[C@@H]12` [PC-37], the “growth of human MCF-7 breast cancer xenografts” value [1] is reported as “reduce the growth”, the IC50 [2] is reported as 500 nM and the IC50 [3] is reported as 1500 nM. For the same compound, the IC50 (K-562 leukemia cells) was 10600 nM, the IC50 [4] was 200 nM and the IC50 [5] was over 10000 nM. For the same compound, the “AUC (7 h)” value ([6]; Table 5, subcutaneous one time) was 337 ng·h/mL, the “AUC (24 h)” value ([6]; Table 5, subcutaneous one time) was 552 ng·h/mL and the “AUC(12 h)” value ([6]; Table 5, subcutaneous one time) was 462 ng·h/mL. The “AUC (0-3 h)” value ([6]; Table 6, subcutaneous one time) was 97 ng·h/mL, the “AUC (0-12 h)” value ([6]; Table 6, subcutaneous one time) was 429 ng·h/mL and the “toxicity on normal healthy lymphocytes” value ([7]; even at high concentrations (>10 μM)) was “little or no toxicity”. It also gave an IC50 ([7]; read-out: IC50 Lymph Norm., Table 3, normal lymphocytes, 3 days incubation, MTS) of 36000 nM, an IC50 [8] of 6500 nM and an IC50 ([9]; Table 3, 3 days incubation, MTS, read-out: IC50 HL-60) of 2500 nM. The IC50 ([9]; Table 4, HL-60 cancer cell line, read-out: IC50) was 1900 nM, the IC50 ([9]; Table 6, HL-60 cancer cell line, read-out: IC50 (HL-60)) was 1900 nM and the IC50 [10] was over 10000 nM. For the same compound, the IC50 [11] was 1400 nM.
